The assay has as its system expression of Fwa116 in human blood vessel endothelia cell. Nature of the assay: Effect of ox-LDL and soybean genistein on expression of Fwa116 (Northern blotting). It is filed as cell-based. To be noted: cells treated with ox-LDL (200 μg/mL) and soybean genistein (100 μM) simultaneously, FIG. 3. As for the experimental part: Low density lipoproteins (LDL) with a density of 1.019 to 1.063 obtained by density gradient centrifugation were oxidized with Cu^2+ for 24 hours, filtrated through a 0.22 μm filter membrane, and stored at 4[…] in a dark place. The value of TBARS was determined and the ox-LDL was separated by electrophoresis on agarose gel. More than 10 nmol/mg of TBARS value and the increase of electrophoretic mobility indicated successful oxidation.
The frozen tube containing human blood vessel endothelia cells was taken out from liquid-nitrogen, and put rapidly into a water bath at 37[…]]. After being melted completely, the cell suspension was inoculated to a 25 mL culture bottle containing 5 mL of RPMI or DMEM with 10% FES. Culture was carried out overnight in an incubator at 37[…] and 5% of CO2 concentration. The medium was replaced on the next day.
When Cells were grown to substantial confluency (with a covering percentage of around 80%), the original medium was discarded. After Cells were rinsed twice with 1× PBS (pH7.4), 0.125% trypsin was added, and the cells were digested for 5-10 minutes at 37 °C. […] The number of cells was counted, and the cell suspension was inoculated to a culture bottle containing 5 mL of RPMI or DMEM with 10% FES to a concentration of 100,000 cells/mL. […]

Data on one molecule can be found in patent publication US20040082031A1, “Inflammatory inhibition factor fwa116” (priority 2001, published 2004).

Take `O=c1c(-c2ccc(O)cc2)coc2cc(O)cc(O)c12` [soybean genistein, genistein]: the “increase of expression of Fwa116” value is “more than 10 fold”.
